According to patent US20160002247A1, “8-SUBSTITUTED IMIDAZOPYRIMIDINONE DERIVATIVE HAVING AUTOTAXIN INHIBITORY ACTIVITY” (THE UNIVERSITY OF TOKYO, priority 2013, published 2016):

Molecular target: T1, Mouse autotaxin enzyme (Mus musculus, UniProt Q9R1E6)
T1 construct: purchased R&D System
Assay: Evaluation of autotaxin inhibitor, Method A (Test Example 1): TG-mTMP fluorescence
Type: biochemical
Settings: Assay Method: Method A (Test Example 1); read-out: Inhibitory Activity (Enzyme Inhibitory Activity, IC50)
Procedure: (Method A) Evaluation of Autotaxin Inhibitor
Solution A containing 25 mM Tris-HCl buffer (pH7.5), 100 mM NaCl, 5 mM MgCl2 and 0.1% BSA was prepared. Mouse autotaxin enzyme (purchased from R&D System) was diluted with Solution A, and 5 μL of which was added to a solution of test compound in DMSO. Furthermore, 5 μl of 0.5 μM TG-mTMP in Solution A was added and allowed to react at room temperature for 2 hours. 5 μl of 150 mM EDTA in Solution A was added to quench the reaction, and a fluorescent dye TokyoGreen, which was produced by the reaction, was detected. The fluorescence was detected using ViewLux (PerkinElmer, Inc.) with an excitation wavelength of 480 nm and a fluorescence wavelength of 540 nm.
The percent inhibition of the test compound was calculated by assuming the sample with no test compound as 0% inhibition and the sample with no enzyme as 100% inhibition, and the percent inhibitions at different concentrations of the test compound were plotted to obtain a concentration-dependent curve.

Row | Compound | IC50
1 | CCNC(=O)Cn1c(C)cc(=O)n2cc(-c3ccc(Cl)cc3)nc12 [Compound 24] | 100 to 1000 nM
2 | CCN(C)C(=O)Cn1c(C)cc(=O)n2cc(-c3ccc(Cl)cc3)nc12 [Compound 25] | 100 to 1000 nM
3 | COCCOCCOCCn1c(C)cc(=O)n2cc(-c3ccc(Cl)cc3)nc12 [Compound 27] | > 1000 nM
4 | CCOC(=O)Cn1c(C)cc(=O)n2cc(-c3ccc(F)cc3)nc12 [Compound 30] | 10 to 100 nM
5 | CCOC(=O)Cn1c(C)cc(=O)n2cc(-c3ccc(Br)cc3)nc12 [Compound 31] | 10 to 100 nM
6 | CCOC(=O)Cn1c(C)cc(=O)n2cc(-c3ccc(OC)cc3)nc12 [Compound 32] | 10 to 100 nM
7 | CCOC(=O)Cn1c(C)cc(=O)n2cc(-c3cccc(Br)c3)nc12 [Compound 33] | > 1000 nM
8 | CCOC(=O)Cn1c(C)cc(=O)n2cc(-c3ccc(Cl)c(Cl)c3)nc12 [Compound 34] | 10 to 100 nM
9 | CCOC(=O)Cn1c(C)cc(=O)n2cc(-c3ccccc3)nc12 [Compound 35] | 10 to 100 nM
10 | CCOC(=O)Cn1c(C)cc(=O)n2cc(-c3ccc([N+](=O)[O-])cc3)nc12 [Compound 36] | 10 to 100 nM
11 | CCOC(=O)Cn1c(C)cc(=O)n2cc(-c3cccc([N+](=O)[O-])c3)nc12 [Compound 37] | 100 to 1000 nM
12 | CCOC(=O)Cn1c(C)cc(=O)n2cc(-c3ccc(N)cc3)nc12 [Compound 38] | > 1000 nM
13 | CCOC(=O)Cn1c(C)cc(=O)n2cc(-c3cccc(N)c3)nc12 [Compound 39] | > 1000 nM
14 | CCOC(=O)Cn1c(C)cc(=O)n2cc(-c3ccc(I)cc3)nc12 [Compound 40] | 10 to 100 nM
